In ChEMBL document CHEMBL4364263, “Synthesis and biological evaluation of 2,4,5-trisubstituted thiazoles as antituberculosis agents effective against drug-resistant tuberculosis” (Eur J Med Chem, 2019):
Values after ≈ are worked out from the molar mass of the structure shown. Active and inactive are the calls of the source. No cut-off for these calls is given here.

Assays:
[1] = test system: Mycobacterium tuberculosis; experiment: Antitubercular activity against replicating Mycobacterium tuberculosis H37Rv assessed as growth inhibition measured after 7 days incubation by microplate alamar blue assay; format: functional; conditions: 168 h
[2] = test system: Mycobacterium tuberculosis; experiment: Antimycobacterial activity against dormant stage of Mycobacterium tuberculosis H37Ra ATCC 25177 assessed as growth inhibition at 10 uM incubated for 12 days by XRMA method relative to control; format: functional; conditions: H37Ra ATCC 25177, 288 h
CHO-K1 = experiment: Cytotoxicity against CHOK1 cells assessed as reduction in cell viability incubated for 24 hrs by MTT assay; format: cell-based; conditions: Cricetulus griseus, CHO-K1, 24 h
Mycobacteroides chelonae = experiment: Antimycobacterial activity against Mycobacterium chelonae assessed as growth inhibition; format: functional, organism-based
B16-F10 = experiment: Cytotoxicity against mouse B16F10 cells assessed as cell viability at 10 uM incubated for 24 hrs by MTT assay; format: cell-based; conditions: b16-f10, 24 h
Staphylococcus aureus = experiment: Antibacterial activity against Staphylococcus aureus ATCC 29213 assessed as growth inhibition incubated for 18 to 24 hrs by broth microdilution based antibiotic susceptibility testing method; format: functional
Pseudomonas aeruginosa = experiment: Antibacterial activity against Pseudomonas aeruginosa ATCC 27853 assessed as growth inhibition incubated for 18 to 24 hrs by broth microdilution based antibiotic susceptibility testing method; format: functional
Klebsiella pneumoniae = experiment: Antibacterial activity against Klebsiella pneumoniae BAA-1705 assessed as growth inhibition incubated for 18 to 24 hrs by broth microdilution based antibiotic susceptibility testing method; format: functional; conditions: ATCC BAA-1705
[3] = test system: Mycobacteroides abscessus; experiment: Antimycobacterial activity against Mycobacterium abscessus assessed as growth inhibition; format: functional, organism-based
Escherichia coli = experiment: Antibacterial activity against Escherichia coli ATCC 25922 assessed as growth inhibition incubated for 18 to 24 hrs by broth microdilution based antibiotic susceptibility testing method; format: functional
MCF7 = experiment: Cytotoxicity against human MCF7 cells assessed as cell viability at 10 uM incubated for 24 hrs by MTT assay; format: cell-based; conditions: mcf7, 24 h
[4] = Selectivity index, ratio of IC50 for CHOK1 cells to MIC for Mycobacterium tuberculosis H37Rv; format: toxicity; conditions: hamster, CHO-K1 cells; read-out: Selectivity Index
[5] = test system: Mycolicibacterium fortuitum; experiment: Antimycobacterial activity against Mycobacterium fortuitum assessed as growth inhibition; format: functional, organism-based
[6] = test system: Mycobacterium tuberculosis; experiment: Antitubercular activity against Mycobacterium tuberculosis H37Rv ATCC 27294 assessed as bacterial growth inhibition incubated for 5 days by standard microdilution method; format: functional; conditions: H37Rv ATCC 27294, 120 h

Structure (SMILES) | MIC [1] | inhibition at 10 µM [2] | also measured
N#Cc1ccc(-c2sc(C3CCCCC3)nc2C(=O)NCc2ccc3c(c2)OCO3)cc1 | > 34 µg/mL | – | –
CCOC(=O)c1nc(C(C)C)sc1-c1ccc2c(c1)OCO2 | 7.9 µg/mL (≈ 24.7 µM) | 90.1% | –
CCOC(=O)c1nc(C(C)C)sc1-c1cccc(C#N)c1 | 15 to 17 µg/mL (≈ 49.9 to 56.6 µM) | – | –
CC(C)c1nc(C(=O)N[C@@H](C)c2ccccc2)c(-c2ccc3c(c2)OCO3)s1 | 4.9 µg/mL (≈ 12.4 µM) | 90.8% | –
CC(C)c1nc(C(=O)NCc2ccc3c(c2)OCO3)c(-c2ccc(C#N)cc2)s1 | > 34 µg/mL | – | –
CO[C@@]12[C@H](COC(N)=O)C3=C(C(=O)C(C)=C(N)C3=O)N1C[C@@H]1N[C@@H]12 [MITOMYCIN] | – | – | IC50 (CHO-K1): 13.1 µg/mL (≈ 39.2 µM)
CC(C)c1nc(C(=O)NCc2ccccc2)c(-c2ccc(C#N)cc2)s1 | > 34 µg/mL | – | –
CCOC(=O)c1nc(C2CCCCC2)sc1-c1cccc2cnccc12 | 4.5 µg/mL (≈ 12.3 µM) | 96% | –
CCOC(=O)c1nc(C2CCCCC2)sc1-c1ccc2nccnc2c1 | 4.5 µg/mL (≈ 12.2 µM) | 93.3% | –
C[C@H](NC(=O)c1nc(C2CCCCC2)sc1-c1ccc(C#N)cc1)c1ccccc1 | 20.7 µg/mL (≈ 49.8 µM) | – | –
CC(C)c1nc(C(=O)NCc2ccc3c(c2)OCO3)c(-c2ccc3c(c2)OCO3)s1 | 10.6 µg/mL (≈ 25 µM) | 82.2% | –
N#Cc1ccc(-c2sc(C3CCCCC3)nc2C(=O)N2CCOCC2)cc1 | > 34 µg/mL | – | –
CO[C@H]1/C=C/O[C@@]2(C)Oc3c(C)c(O)c4c(O)c(c(/C=N/N5CCN(C)CC5)c(O)c4c3C2=O)NC(=O)/C(C)=C\C=C\[C@H](C)[C@H](O)[C@@H](C)[C@@H](O)[C@@H](C)[C@H](OC(C)=O)[C@@H]1C [RIFAMPIN] | 0.2 µg/mL (≈ 0.243 µM) | – | –
CCOC(=O)c1nc(C2CCCCC2)sc1-c1ccc2c(c1)NC(=O)CO2 | 19.3 µg/mL (≈ 49.9 µM) | – | –
CCOC(=O)c1nc(C2CCCCC2)sc1-c1ccccc1C#N | 4.2 µg/mL (≈ 12.3 µM) | 91.7% | inhibition (Mycobacteroides chelonae): inactive; Activity (B16-F10): Non-Toxic; MIC (Staphylococcus aureus): 50 µM (≈ 17 µg/mL); MIC (Pseudomonas aeruginosa): > 50 µM; MIC (Klebsiella pneumoniae): > 50 µM; inhibition [3]: inactive; MIC (Escherichia coli): > 50 µM; Activity (MCF7): Non-Toxic; selectivity ratio [4]: > 11.9; inhibition [5]: inactive; IC50 (CHO-K1): > 50 µg/mL
COc1ccc(CCNC(=O)c2nc(C)sc2-c2ccc(C#N)cc2)cc1OC | > 34 µg/mL | 67.3% | –
COc1ncnc(Cn2cc(C(=O)NCCO)c3ncc(C)cc32)c1C [TBA-7371] | – | – | MIC [6]: 0.78 to 3.12 µM (≈ 0.277 to 1.11 µg/mL)
Cc1nc(C(=O)NCc2cccnc2)c(-c2ccc(C#N)cc2)s1 | > 34 µg/mL | – | –
CCOC(=O)c1nc(C2CCCCC2)sc1-c1cccc(C#N)c1 | 4.2 µg/mL (≈ 12.3 µM) | 90.3% | inhibition (Mycobacteroides chelonae): inactive; Activity (B16-F10): Non-Toxic; MIC (Staphylococcus aureus): 50 µM (≈ 17 µg/mL); MIC (Pseudomonas aeruginosa): > 50 µM; MIC (Klebsiella pneumoniae): > 50 µM; inhibition [3]: inactive; MIC (Escherichia coli): > 50 µM; Activity (MCF7): Non-Toxic; selectivity ratio [4]: > 11.9; inhibition [5]: inactive; IC50 (CHO-K1): > 50 µg/mL
CCOC(=O)c1nc(C2CCCCC2)sc1-c1ccc2c(c1)OCO2 | 8.9 µg/mL (≈ 24.8 µM) | 92% | –
CC(C)c1nc(C(=O)NCc2cccnc2)c(-c2ccc3c(c2)OCO3)s1 | 9.5 µg/mL (≈ 24.9 µM) | 87.1% | –
C[C@@H](NC(=O)c1nc(C2CCCCC2)sc1-c1ccc(C#N)cc1)c1ccccc1 | 10.3 µg/mL (≈ 24.8 µM) | 57.8% | –
CC(C)c1nc(C(=O)NCc2cccnc2)c(-c2ccc(C#N)cc2)s1 | > 34 µg/mL | – | –
COc1ccc(CCNC(=O)c2nc(C3CCCCC3)sc2-c2ccc(C#N)cc2)cc1OC | 5.9 µg/mL (≈ 12.4 µM) | 71.6% | –
CC(C)c1nc(C(=O)NCc2ccc(F)cc2)c(-c2ccc(C#N)cc2)s1 | > 34 µg/mL | – | –
CCOC(=O)c1nc(C(C)C)sc1-c1ccc2c(c1)NC(=O)CO2 | > 34 µg/mL | – | –
CC(C)c1nc(C(=O)NC(C)c2ccc(Br)cc2)c(-c2ccc(C#N)cc2)s1 (stereo unspecified) | > 34 µg/mL | – | –
